Experimental data published in ChEMBL document CHEMBL4340555, “Synthesis and biological evaluation of 2-chloro-3-[(thiazol-2-yl)amino]-1,4-naphthoquinones” (Bioorg Med Chem Lett, 2019).
Values after ≈ are worked out from the molar mass of the structure shown. Active and inactive are the calls of the source. No cut-off for these calls is given here.

Key:
[1] = tested on: Pseudomonas aeruginosa; experiment: Antimicrobial activity against Pseudomonas aeruginosa assessed as zone of inhibition at 10 uM/disk after 24 hrs by disk diffusion method; assay type: functional; settings: for zone of inhibition at 10 µM: read-out: DIZ
[2] = tested on: Mycobacterium tuberculosis; experiment: Antitubercular activity against Mycobacterium tuberculosis H37Rv assessed as reduction in bacterial growth after 14 days by green fluorescent protein microplate assay; assay type: functional; settings: 336 h
[3] = tested on: Pseudomonas aeruginosa; experiment: Antimicrobial activity against Pseudomonas aeruginosa assessed as zone of inhibition at 100 uM/disk after 24 hrs by disk diffusion method; assay type: functional; settings: for zone of inhibition at 100 µM: read-out: DIZ
[4] = tested on: SH-SY5Y; experiment: Cytotoxicity against human SH-SY5Y assessed as reduction in cell viability after 48 hrs by xCELLigence RTCA SP analysis; assay type: functional, cell-based
[5] = tested on: Pseudomonas aeruginosa; experiment: Antimicrobial activity against Pseudomonas aeruginosa assessed as zone of inhibition at 2000 uM/disk after 24 hrs by disk diffusion method; assay type: functional; settings: for zone of inhibition at 2000 µM: read-out: DIZ
[6] = tested on: Plasmodium falciparum; experiment: Stimulation of parasite proliferation of Plasmodium falciparum 3D7 assessed as increase in parasite viability at 20 uM by parasite lactate dehydrogenase released based colorimetric assay relative to control; assay type: organism-based
[7] = tested on: Mycobacterium tuberculosis; experiment: Antitubercular activity against Mycobacterium tuberculosis H37Rv assessed as reduction in bacterial growth after 7 days by green fluorescent protein microplate assay; assay type: functional; settings: 168 h
[8] = Lipophilicity, log P of the compound; assay type: physicochemical; settings: octanol/water
[9] = tested on: HeLa; experiment: Cytotoxicity against human HeLa cells assessed as cell viability at 20 uM after 24 hrs by resazurin based fluorescence assay relative to control; assay type: functional; settings: read-out: Activity
[10] = tested on: Pseudomonas aeruginosa; experiment: Antimicrobial activity against Pseudomonas aeruginosa assessed as zone of inhibition at 1 uM/disk after 24 hrs by disk diffusion method; assay type: functional
[11] = tested on: Pseudomonas aeruginosa; experiment: Antimicrobial activity against Pseudomonas aeruginosa assessed as zone of inhibition at 1000 uM/disk after 24 hrs by disk diffusion method; assay type: functional; settings: for zone of inhibition at 1000 µM: read-out: DIZ
[12] = tested on: Plasmodium falciparum; experiment: Antimalarial activity against Plasmodium falciparum 3D7 assessed as reduction in parasite viability at 20 uM by parasite lactate dehydrogenase released based colorimetric assay relative to control; assay type: functional
[13] = tested on: Pseudomonas aeruginosa; experiment: Antimicrobial activity against Pseudomonas aeruginosa assessed as zone of inhibition after 24 hrs by disk diffusion method; assay type: functional, organism-based
[14] = tested on: Pseudomonas aeruginosa; experiment: Antimicrobial activity against Pseudomonas aeruginosa assessed as zone of inhibition at 25 ug/disk after 24 hrs by disk diffusion method; assay type: functional; settings: read-out: DIZ
[15] = tested on: Plasmodium falciparum; experiment: Antimalarial activity against Plasmodium falciparum 3D7 assessed as reduction in parasite viability by parasite lactate dehydrogenase release based colorimetric assay; assay type: functional, organism-based
[16] = tested on: Pseudomonas aeruginosa; experiment: Antimicrobial activity against Pseudomonas aeruginosa assessed as zone of inhibition at 10 ug/disk after 24 hrs by disk diffusion method; assay type: functional; settings: read-out: DIZ

Row | SMILES | diameter of the inhibition zone (DIZ) [1] | MIC99 [2] | diameter of the inhibition zone (DIZ) [3] | Activity [4] | IC50 [4] | diameter of the inhibition zone (DIZ) [5] | MIC90 [7] | logP [8] | viability at 20 µM [9] | diameter of the inhibition zone (DIZ) [10] | diameter of the inhibition zone (DIZ) [11] | zone of inhibition at 100 µM [3] | zone of inhibition at 2000 µM [5] | inhibition at 20 µM [12] | Activity [13] | zone of inhibition at 1000 µM [11] | also measured
1 | O=C(O)c1csc(NC2=C(Cl)C(=O)c3ccccc3C2=O)n1 | inactive | > 20 µM | inactive | Dose-dependent effect | > 100 µM | inactive | > 20 µM | < 5 | 75% | inactive | inactive | – | – | – | – | – | Activity [6]: 15%
2 | O=C1C(Cl)=C(Nc2nc(-c3ccccc3)cs2)C(=O)c2ccccc21 | – | 10.2 µM (≈ 3.74 µg/mL) | – | Dose-dependent effect | 1.8 µM | – | 9.19 µM (≈ 3.37 µg/mL) | < 5 | 80% | inactive | – | 9.1 mm | 13.2 mm | 10% | Dose-dependent effect | 11.4 mm | zone of inhibition at 10 µM [1]: 5.3 mm
3 | CCOC(=O)c1csc(NC2=C(Cl)C(=O)c3ccccc3C2=O)n1 | inactive | > 20 µM | inactive | Dose-dependent effect | 31.1 µM | inactive | 19.5 µM (≈ 7.07 µg/mL) | < 5 | 82% | inactive | inactive | – | – | 40% | – | – | –
4 | O=C1C(Cl)=C(Nc2nc(-c3ccc(Cl)cc3)cs2)C(=O)c2ccccc21 | inactive | > 20 µM | – | Dose-dependent effect | 2.7 µM | – | > 20 µM | < 5 | 80% | inactive | – | 7.6 mm | 12 mm | 30% | Dose-dependent effect | 9.7 mm | –
5 | CCN(CC)CCCC(C)Nc1ccnc2cc(Cl)ccc12 (centres undefined) [CHLOROQUINE] | inactive | – | inactive | – | – | inactive | – | – | 3.6% | inactive | inactive | – | – | – | – | – | –
6 | CC1(C)S[C@@H]2[C@H](NC(=O)[C@H](N)c3ccccc3)C(=O)N2[C@H]1C(=O)O [AMPICILLIN] | – | – | – | – | – | – | – | – | – | – | – | – | – | – | – | – | zone of inhibition at 25 µg/disc [14]: 24.7 mm
7 | CO[C@H]1/C=C/O[C@@]2(C)Oc3c(C)c(O)c4c(O)c(c(/C=N/N5CCN(C)CC5)c(O)c4c3C2=O)NC(=O)/C(C)=C\C=C\[C@H](C)[C@H](O)[C@@H](C)[C@@H](O)[C@@H](C)[C@H](OC(C)=O)[C@@H]1C [RIFAMPIN] | – | 0.00167 µM (≈ 0.00137 µg/mL) | – | – | – | – | 0.0015 µM (≈ 0.00123 µg/mL) | – | – | – | – | – | – | – | – | – | –
8 | O=C1C(Cl)=C(Nc2nc(-c3ccc([N+](=O)[O-])cc3)cs2)C(=O)c2ccccc21 | inactive | > 20 µM | – | Dose-dependent effect | – | – | > 20 µM | < 5 | 80% | inactive | – | 7.2 mm | 14.1 mm | 80 to 90% | Dose-dependent effect | 11 mm | IC50 [15]: 20.3 µM
9 | O=C1C(Cl)=C(Nc2nc(-c3ccc(Br)cc3)cs2)C(=O)c2ccccc21 | inactive | > 20 µM | inactive | Dose-dependent effect | – | inactive | > 20 µM | < 5 | 55% | inactive | inactive | – | – | 80 to 90% | – | – | IC50 [15]: 50.6 µM
10 | CN[C@@H]1[C@H](O[C@H]2[C@H](O[C@H]3[C@H](O)[C@@H](O)[C@H](N=C(N)N)[C@@H](O)[C@@H]3N=C(N)N)O[C@@H](C)[C@]2(O)C=O)O[C@@H](CO)[C@H](O)[C@H]1O [STREPTOMYCIN] | – | – | – | – | – | – | – | – | – | – | – | – | – | – | – | – | zone of inhibition at 10 µg/disc [16]: 20 mm
11 | O=C1C(Cl)=C(Nc2nc(-c3ccc(F)cc3)cs2)C(=O)c2ccccc21 | – | 10.4 µM (≈ 4 µg/mL) | – | Dose-dependent effect | 1.5 µM | – | 9.37 µM (≈ 3.61 µg/mL) | < 5 | 75% | – | – | 11 mm | 19.5 mm | 80 to 90% | Dose-dependent effect | 15 mm | zone of inhibition at 10 µM [1]: 8 mm; IC50 [15]: 44.7 µM; zone of inhibition at 1 µM ([10]; read-out: DIZ): 5 mm
